Source: US10329336B2, “Antimicrobial kinocidin compositions and methods of use” (LA Biomedical Research Institute at Harbor-UCLA Medical …, priority 2006, dated 2019)
Entries after “also recorded” stand apart in the source; their conditions may differ.

Tests used:
[1] = system: Candida albicans (ATCC 36082); test: Solid-phase antimicrobial assay of kinocidins; format: cell-based; details: C. albicans, 0.5 nmol/well
Method: (§1) Peptides (0.5 nmol) were introduced into wells in agarose plates buffered with MES (2.0 mM, pH 5.5) or PIPES (10.0 mM, pH 7.5). Antimicrobial activity was assessed as the zone of complete (blue) or partial (red) inhibition around the well. Abbreviations are: Native IL-8 (IL-8); IL-8α, (α); IL-8γ, (γ); IL-8α+IL-8γ (α+γ); RANTES, (RAN); GRO-α, (GRO); MCP-1, (MCP); lymphotactin, (LYM); platelet factor-4, (PF-4); and HNP-1, (HNP). Histograms are means±SEM (minimum n=2).
(§2) Briefly, the antimicrobial assays were performed against a panel of prototype human pathogens as previously detailed (Yoshimura, T., Matsushima, K., Tanaka, S., Robinson, E. A., Appella, E., Oppenheim, J. J. & Leonard, E. J. (1987) Proc Natl Acad Sci USA 84, 9233-7): Staphylococcus aureus (ATCC 27217; Gram-positive bacterium); Salmonella typhimurium (5996s; Gram-negative bacterium); and the fungus Candida albicans (ATCC 36082). Defensin HNP-1 was included in each assay as an internal control, and all assays were conducted a minimum of two independent times. Results of independent assays were analyzed using Wilcoxon Rank Sum analysis with Bonferroni correction for multiple comparisons.
(§3) For the Solid-Phase Assay, mid-logarithmic phase organisms were prepared, introduced into buffered agarose (PIPES [10 mM, pH 7.5] or MES [2.0 mM, pH 5.5]) to achieve final inocula of 10^6 CFU/ml, and poured into plates. Peptides (0.5 nmol/well [50 nmol/ml]) were added to wells in the seeded matrix, and incubated for 3h at 37° C. Nutrient overlay medium was applied, and assays incubated at 37° C. or 30° C. for bacteria or fungi, respectively. After 24h, zones of inhibition were measured, and results recorded as zones of complete or partial inhibition.

[2] = system: Salmonella typhimurium (5996s); test: Solid-phase antimicrobial assay of kinocidins; format: cell-based; details: S. typhimurium (Gram-negative); pH 5.5 or 7.5, not separated; 0.5 nmol/well
Method: as §1, §2, §3

[3] = system: Staphylococcus aureus (ATCC 27217); test: Solid-phase antimicrobial assay of kinocidins; format: cell-based; details: 0.5 nmol/well
Method: as §1, §2, §3

C. albicans ATCC 36082 = test: Solution-phase microbicidal assay; format: cell-based, Candida albicans; details: C. albicans; for microbicidal (fungicidal) activity: solution-phase, pH 5.5 and 7.5, 1 hour
Method: (§4) One million CFU of the indicated microorganism per milliliter were incubated with peptide (0.00125-20.0 nmol/ml) in either MES (2.0 mM, pH 5.5) or PIPES (10.0 mM, pH 7.5) for one hour at 37° C. Surviving CFU were enumerated and are described as change in the initial log 10 CFU. ∘, S. aureus ATCC 27217; ●, S. typhimurium strain 5990s; □, C. albicans ATCC 36082. Data are means±SD (minimum n=2).
as §2
(§5) To characterize IL-8's antimicrobial activity in more detail, a quantitative solution-phase assay was carried out at pH 5.5 and 7.5. Organisms were prepared and adjusted to 10^6 CFU/ml in PIPES or MES buffer as above but lacking agarose, and dispensed (5×10^4 CFU per 50 μl aliquot). Peptide (concentration range, 20-0.00125 nmol/ml) was introduced into the assay medium, and incubated for 1 hour at 37° C. After incubation, media were serially diluted and plated in triplicate for enumeration. […] IL-8 was also fungicidal for C. albicans at pH 7.5, with a 2-log reduction in surviving CFU over 1 hour at a concentration of 2.5 nmol/ml.

S. typhimurium = test: Solution-phase microbicidal assay; format: cell-based, Salmonella typhimurium; details: for microbicidal activity: solution-phase, pH 5.5 and 7.5, 1 hour
Method: as §4, §2, §5

S. aureus ATCC 27217 = test: Solution-phase microbicidal assay; format: cell-based, Staphylococcus aureus; details: for microbicidal activity: solution-phase, pH 5.5 and 7.5, 1 hour
Method: as §4, §2, §5

[4] = system: Staphylococcus aureus (ATCC 27217), Bacillus subtilis (ATCC 6633), Escherichia coli (strain ML-35); test: Solid-phase radial diffusion assay (signature model validation), bacteria panel; format: cell-based; details: pH 5.5 or pH 7.5, after 24h
Method: (§6) Standard radial diffusion assays were conducted using 10 μg of specified peptide: defensin HNP-1 (HNP); brazzein (BRZ); charybdotoxin (CTX); or metallothionein II (MTL). Recombinant brazzein reflecting the published 3-dimensional structure (1BRZ) as determined by nuclear magnetic resonance spectroscopy was kindly provided by Drs. J. L. Markley and F. M. Assadi-Porter, the University of Wisconsin 25. Charybdotoxin, metallothionein II, and defensin HNP-1 were obtained from commercial sources. Antimicrobial activity was assessed using a well-established solid-phase diffusion method as described by Tang et al., Infect. Immun. 70: 6524-6533 (2002). Assays included well characterized organisms: Staphylococcus aureus (ATCC 27217, Gram-positive coccus); Bacillus subtilis (ATCC 6633, Gram-positive bacillus); Escherichia coli (strain ML-35, Gram-negative bacillus); and Candida albicans (ATCC 36082, fungus). In brief, organisms were cultured to logarithmic phase and inoculated (10^6 colony forming units/ml) into buffered molecular-biology grade agarose at the indicated pH. Peptides resuspended in sterile deionized water were introduced into wells formed in the underlay, and incubated for 3h at 37° C. Nutrient-containing overlay medium was then applied, and assays incubated at 37° C. or 30° C. for bacteria or fungi, respectively. After 24h, zones of complete or partial inhibition were measured. All assays were repeated independently a minimum of two times at pH 5.5 (panels A-D) or pH 7.5 (panels E-H) to assess the influences of pH on peptide antimicrobial activities versus microorganisms. Histograms express mean (±standard deviation) zones of complete (blue) or incomplete (yellow) inhibition of growth. […] Note differences in scale.
(§7) These peptides were tested for antimicrobial activity against a panel of Gram-positive (Staphylococcus aureus. Bacillus subtilis) and Gram-negative (Escherichia coli) bacteria, and the fungus Candida albicans, using a well-established and sensitive in vitro assay [Antimicrobial activity was assessed using a well-established solid-phase diffusion method. Assays included well-characterized organisms: Staphylococcus aureus (ATCC 27217, Gram-positive); Bacillus subtilis (ATCC 6633, Gram-positive); Escherichia coli (strain ML-35, Gram-negative); and Candida albicans (ATCC 36082, fungus). In brief, organisms were cultured to logarithmic phase and inoculated at a density of 10^6 colony forming units/ml in buffered molecular grade agarose at the indicated pH. […] of peptide resuspended in sterile deionized water were introduced into wells formed in the underlay, and incubated for 3h at 37° C. […] After 24h, zones of complete or partial inhibition were measured. […]

[5] = system: Candida albicans (ATCC 36082); test: Solid-phase radial diffusion assay (signature model validation), fungus; format: cell-based; details: C. albicans, pH 5.5 or pH 7.5, after 24h
Method: as §6, §7

[6] = S. aureus (Gram-positive), pH 5.5 or 7.5, not separated

With “ANTEIIVKLSDGRELCLDP [IL-8γ, synthetic γ-core domain of IL-8]” the “antifungal activity (zone of inhibition)” value ([1]; pH 5.5 or 7.5, not separated) was “no detectable antimicrobial efficacy”, the “antimicrobial activity (zone of inhibition)” value [2] was “no detectable antimicrobial efficacy” and the “antimicrobial activity (zone of inhibition)” value [3, 6] was “no detectable antimicrobial efficacy”. The “microbicidal (fungicidal) activity” value (C. albicans ATCC 36082) was “no measurable activity”, the microbicidal activity (S. typhimurium) was “no measurable activity” and the microbicidal activity (S. aureus ATCC 27217) was “no measurable activity”.

In the case of “IL-8: recombinant human chemokine interleukin-8, obtained commercially”, the “antifungal activity (zone of inhibition)” value ([1]; pH 5.5) is reported as “greater than any other kinocidin”, the “antifungal activity (zone of inhibition)” value ([1]; pH 5.5 or 7.5, not separated) is reported as “striking antifungal activity” and the “antifungal activity (zone of inhibition)” value ([1]; pH 7.5) is reported as “the only kinocidin with anti-candidal activity”. The “antimicrobial activity (zone of inhibition)” value [2] was “equivalent to lymphotactin, but more efficacious than any other test kinocidin”, the “antimicrobial activity (zone of inhibition)” value ([3]; S. aureus, pH 5.5) was “modest activity” and the “reduction in surviving CFU” value (C. albicans ATCC 36082; pH 7.5, 2.5 nmol/ml, over 1 hour) was 2 log. For the same molecule, the “microbicidal (fungicidal) activity” value (C. albicans ATCC 36082) was “highly fungicidal”, the “activity in solution phase” value (S. typhimurium; pH 7.5) was “lacks activity” and the microbicidal activity (S. typhimurium) was “did not exert microbicidal activity”. For the same molecule, the “activity in solution phase” value (S. aureus ATCC 27217; pH 7.5) was “lacks activity” and the microbicidal activity (S. aureus ATCC 27217) was “did not exert microbicidal activity”.

In the case of “MCP-1: recombinant human chemokine, obtained commercially”, the “antifungal activity (zone of inhibition)” value ([1]; pH 5.5 or 7.5, not separated) is reported as “no measurable antifungal activity”, the “antimicrobial activity (zone of inhibition)” value [2] is reported as “significant activity” and the “antimicrobial activity (zone of inhibition)” value [3, 6] is reported as “significant activity”.

In the case of “RANTES: recombinant human chemokine, obtained commercially”, the “antimicrobial activity (zone of inhibition)” value ([3]; S. aureus, pH 7.5) is reported as “more efficacious”.

For “brazzein: recombinant sweetener protein from Pentadiplandra (1BRZ) (QDKCKKVYENYPVSKCQLANQCNYDCKLDKHARSGECFYDEKRNLQCICDYCEY; UniProt P56552 1-54, looked up)”, the “antimicrobial activity (zones of complete or partial inhibition)” value [4] was “exerted direct antimicrobial activity; also recorded: direct antimicrobial activities” and the “antimicrobial activity (zones of complete or partial inhibition)” value [5] was “exerted direct antimicrobial activity; also recorded: direct antimicrobial activities”.

With charybdotoxin the “antimicrobial activity (zones of complete or partial inhibition)” value [4] was “exerted direct antimicrobial activity; also recorded: direct antimicrobial activities” and the “antimicrobial activity (zones of complete or partial inhibition)” value [5] was “exerted direct antimicrobial activity; also recorded: direct antimicrobial activities”.

In the case of “metallothionein II: comparator predicted to lack antimicrobial activity, from commercial sources”, the “antimicrobial activity (zones of complete or partial inhibition)” value [4] is reported as “failed to exert antimicrobial activity”, the “antimicrobial activity (zones of complete or partial inhibition)” value ([4]; listed as Metallothionein II) is reported as “lacked antimicrobial activity” and the “antimicrobial activity (zones of complete or partial inhibition)” value [5] is reported as “failed to exert antimicrobial activity”. For the same molecule, the “antimicrobial activity (zones of complete or partial inhibition)” value ([5]; listed as Metallothionein II) was “lacked antimicrobial activity”.

B1: Lymphotactin: recombinant human chemokine, obtained commercially (protein, UniProt P47992 22-114, looked up)
Lymphotactin: VGSEVSDKRTCVSLTTQRLPVSRIKTYTITEGSLRAVIFITKRGLKVCADPQATWVRDVVRSMDRKSNTRNNMIQTKPTGTQQSTNTAVTLTG
In the case of B1, the “antimicrobial activity (zone of inhibition)” value ([3]; S. aureus, pH 7.5) is reported as “more efficacious”.
